The values below come from patent EP4471048A1, “PEPTIDE INHIBITORS OF INTERLEUKIN-23 RECEPTOR” (Zealand Pharma A/S, priority 2023, dated 2024).

Like-named read-outs stand apart in the source and are kept apart here. *1 amine or outer side, *2 acyl side, *3 side chain or, on linkers, in order; H or OH if unused. Where a SMILES comes first, the peptide text is derived from it. Bridges are numbered along the chain shown (N, C = ends). [ ]: non-standard residue; d: D form. 2Nal = N[C@@H](Cc1ccc2ccccc2c1)C(=O)O; AEF = NCCOc1ccc(C[C@H](N)C(=O)O)cc1; X1 = O=C(Cc1ccc(CN[*:1])cc1)[*:2]; 3Pal = N[C@@H](Cc1cccnc1)C(=O)O; Aad = N[C@@H](CCCC(=O)O)C(=O)O; αMeL = CC(C)C[C@](C)(N)C(=O)O; CH2COCH2 = O=C(C[*:1])C[*:2]; dOrn = NCCC[C@@H](N)C(=O)O; Dab = NCC[C@H](N)C(=O)O

In one assay the target is T1, human IL-23R (Homo sapiens, UniProt Q5VWK5).
T1 sequence (Q5VWK5 22-629): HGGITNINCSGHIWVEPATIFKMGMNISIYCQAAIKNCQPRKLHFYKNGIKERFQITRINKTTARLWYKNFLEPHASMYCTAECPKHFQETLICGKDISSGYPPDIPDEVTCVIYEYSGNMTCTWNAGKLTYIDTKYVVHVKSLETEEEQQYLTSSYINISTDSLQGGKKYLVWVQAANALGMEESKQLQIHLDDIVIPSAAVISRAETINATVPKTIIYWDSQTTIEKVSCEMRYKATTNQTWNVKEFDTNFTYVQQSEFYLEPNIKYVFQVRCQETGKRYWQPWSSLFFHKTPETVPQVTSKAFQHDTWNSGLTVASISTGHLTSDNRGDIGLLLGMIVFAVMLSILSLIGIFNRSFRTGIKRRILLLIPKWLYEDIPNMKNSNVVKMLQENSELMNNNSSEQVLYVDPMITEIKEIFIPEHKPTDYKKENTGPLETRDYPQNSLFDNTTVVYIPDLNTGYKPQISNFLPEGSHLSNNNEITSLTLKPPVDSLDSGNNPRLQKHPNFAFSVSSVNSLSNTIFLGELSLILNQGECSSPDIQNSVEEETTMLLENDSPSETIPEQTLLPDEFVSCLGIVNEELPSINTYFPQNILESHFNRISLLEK
Description: biochemical. Conditions: for Emax: read-out: % displacement (hIL-23R NIuc). In outline:
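Membranes from HEK293 cells stably expressing Nluc-tagged human IL-23R were incubated 2 h at room temperature with test compound and a fluorophore-labelled tracer. After substrate addition, loss of BRET (TAMRA over luciferase emission) reported tracer displacement. A 4PL fit gave IC50 values.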

In assay [1] the target is IL-23 mediated signalling (Homo sapiens, UniProt Q5VWK5). Briefly: Functional inhibition of IL-23 mediated STAT3 signalling (phospho-STAT3 MSD) in DB cells. It counts as cell-based. Conditions: DB cells, hIL-23 at EC80; for Emax: maximal inhibitory response, read-out: hIL-23 (pSTAT3) antagonist % inhibition. The source says: Upon binding of IL-23, the IL-23R forms a heterodimer signalling complex together with IL-12R β1, which through the JAK2/STAT3 pathway promotes phosphorylation of STAT3 to form phospho-STAT3.
For compounds tested in this assay, the response was normalized relative to control values to calculate the IC50 and maximal inhibitory response from a concentration response curve of the compound in presence of a fixed concentration of human IL-23.
The assay procedure was as follows. […] Following preincubation of the DB cells with inhibitor for 15 min in a cell incubator (37 °C, 5% CO2), 20 µL of the prepared 3X the EC80 of hIL-23 solution was added to each well and incubated for 90 min in a cell incubator (37 °C, 5% CO2). For some wells buffer only or IL-23 only corresponding to the EC80 was added to obtain readouts needed for normalization. To terminate the assay, the plate was spun at 1000 G for 5 min to pellet cells, the supernatant removed using an 8-channel manual pipette, and then added 50 µL/well Complete Lysis Buffer from the MSD STAT3 kit (Cat# K150SVD, Mesoscale) to the cell pellet. To completely lyse cells to release phospho-STAT3 for detection, the plate was shaken for 10 min at room temperature (500 rpm) sealed with aluminium foil and placed at -80 °C for a minimum of 15 min. Detection of the phospho-STAT3 level in the cell lysate from the individual wells was determined using the MSD STAT3 kit (Cat# K150SVD, Mesoscale) and read on a Meso QuickPlex SQ 120 plate reader (Mesoscale).
For data analysis raw data counts from the Meso QuickPlex SQ 120 plate reader were normalized relative to the response by the EC80 of h1L-23 alone (no compound added) and the buffer level. Compound potency (IC50) and maximal inhibitory response (% inhibition) were estimated by computer-aided curve fitting using a 4-parameter logistic (4PL) nonlinear model. […] Table 3-2: hIL-23 (pSTAT3) antagonist IC50 and % inhibition

The mark [2] stands for this setting: Table 3-2, read-out: hIL-23 (pSTAT3) antagonist IC50.

Consider `CC(C)C[C@]1(C)NC(=O)[C@H](Cc2ccc3ccccc3c2)NC(=O)[C@H](Cc2ccc(OCCN)cc2)NC(=O)[C@@H]2CCC(=O)N[C@@H](CCCCNC(=O)CC[C@@H](C(=O)N[C@@H](CCN)C(=O)N[C@@H](Cc3cccnc3)C(N)=O)NC1=O)C(=O)N[C@@H]([C@@H](C)O)C(=O)N[C@@H](C(C)C)C(=O)N[C@@H](Cc1c[nH]c3ccccc13)C(=O)N[C@@H](CCC(N)=O)C(=O)N2` [Compound 2, K(1c)(6c)^†TVWQE(6c)[Y(2-aminoethoxy)][2-Nal][2-Me-Leu]E(1c)[Dab][3-(3-Pyridyl)-Ala]-[NH2]] (KTVWQE[AEF][2Nal][αMeL]E[Dab][3Pal]-NH2; lactam 1-10, N-6), for which the IC50 was found to be 0.021 nM against human IL-23R and 0.11 nM in assay [1] (SAR tables 2-1 to 2-7, read-out: IC50 (pSTAT3)). The Emax on human IL-23R was found to be 100%; in assay [1] (Table 3-2), 99%.

Turning to `CC[C@H](C)[C@@H]1NC(=O)[C@@H]2CCCCNC(=O)CC[C@@H](C(=O)N[C@@H](CCN)C(=O)N[C@@H](Cc3cccnc3)C(N)=O)NC(=O)C(C)(C)NC(=O)[C@H](Cc3ccc4ccccc4c3)NC(=O)[C@H](Cc3ccc(C)cc3)NC(=O)[C@H](CCC(=O)N2)NC(=O)[C@H](CCC(N)=O)NC(=O)[C@H](Cc2c[nH]c3ccccc23)NC(=O)[C@H](C(C)C)NC1=O` [Compound 17, K(1c)(6c)^†IVWQE(6c)[F(4-Me)][2-Nal][Aib]E(1c)[Dab][3-(3-Pyridyl)-Ala]-[NH2]], the Emax stood at 107% at human IL-23R and 99% in assay [1] (Table 3-2). Moreover, the IC50 in assay [1] (setting [2]) was determined as 2.9 nM.

Turning to `CNC(=O)[C@H](Cc1cccnc1)NC(=O)[C@H](CCN)NC(=O)[C@@H]1CCCCNC(=O)CC[C@@H]2NC(=O)CC[C@H](NC(=O)[C@H](CCC(N)=O)NC(=O)[C@H](Cc3c[nH]c4ccccc34)NC(=O)[C@H]([C@@H](C)O)NC2=O)C(=O)N[C@@H](Cc2ccc(OCCN)cc2)C(=O)N[C@@H](Cc2ccc3ccccc3c2)C(=O)N[C@@](C)(CC(C)C)C(=O)N1` [Compound 39, E(1c)(6c)^†TWQE(6c)[Y(2-aminoethoxy)][2-Nal][2-Me-Leu]K(1c)[Dab][3-(3-Pyridyl)-Ala]-[NHMe]] (ETWQE[AEF][2Nal][αMeL]K[Dab][3Pal]-NHMe; lactam 1-9, N-5), at human IL-23R, the “% displacement (hIL-23R NIuc)” value is on record as 98% and it took 0.64 nM to reach half-maximal inhibition (IC50). Moreover, in assay [1] (Table 3-2), the Emax came out at 99%.

Consider `CC(C)C[C@]1(C)NC(=O)[C@H](Cc2ccc3ccccc3c2)NC(=O)[C@H](Cc2ccc(OCCN)cc2)NC(=O)[C@@H]2CCC(=O)N[C@H](CCCNC(=O)CCC[C@@H](C(=O)N[C@@H](CCN)C(=O)N[C@@H](Cc3cccnc3)C(N)=O)NC1=O)C(=O)N[C@@H]([C@@H](C)O)C(=O)N[C@@H](C(C)C)C(=O)N[C@@H](Cc1c[nH]c3ccccc13)C(=O)N[C@@H](CCC(N)=O)C(=O)N2` [Compound 6, [{d}Orn](1c)(6c)^†TVWQE(6c)[Y(2-aminoethoxy)][2-Nal][2-Me-Leu][hGlu](1c)[Dab][3-(3-Pyridyl)-Ala]-[NH2]] ([dOrn]TVWQE[AEF][2Nal][αMeL][Aad][Dab][3Pal]-NH2; lactam 1-10, N-6), for which, on human IL-23R, the “% displacement (hIL-23R NIuc)” value stood at 104% and 0.022 nM corresponded to half-maximal inhibition (IC50). In assay [1] (Table 3-2), the Emax amounted to 104%.

With `CC(C)C[C@]1(C)NC(=O)[C@H](Cc2ccc3ccccc3c2)NC(=O)[C@H](Cc2ccc(OCCN)cc2)NC(=O)[C@@H]2CSCC(=O)CSC[C@H](NC(=O)[C@H](CO)NC(=O)Cc3ccc(cc3)CNC(=O)CC[C@@H](C(=O)N[C@@H](CCCNC(=N)N)C(N)=O)NC1=O)C(=O)N[C@@H](Cc1c[nH]c3ccccc13)C(=O)N[C@@H](CCC(N)=O)C(=O)N2` [Ref 52, [4-Aminomethyl-phenylacetyl](1c)*SC(2a)WQC(2a)[Y(2-aminoethoxy)][2-Nal][2-Me-Leu]E(1c)R-[NH2], reference compound] ([X1]SCWQC[AEF][2Nal][αMeL]ER-NH2; linker 3-6 via CH2COCH2; lactam N-10), on human IL-23R, the “% displacement (hIL-23R NIuc)” value is reported as 100%, half-maximal inhibition (IC50) was put at 0.058 nM and the Ki is 0.0475 nM. Moreover, the IC50 in assay [1] (setting [2]) worked out at 7.8 nM. Besides, the Emax in assay [1] (Table 3-2) came out at 103%.

Usually IC50 stands for the concentration that inhibits the measured activity by half. Broadly, the Ki is the equilibrium dissociation constant of an inhibitor or competing ligand from its target. Low values mean a stronger hold on the target, high ones a looser hold on the target.
